Test [1] concerns the target T1, human AR (Homo sapiens, UniProt P10275).
T1 sequence (P10275 640-920): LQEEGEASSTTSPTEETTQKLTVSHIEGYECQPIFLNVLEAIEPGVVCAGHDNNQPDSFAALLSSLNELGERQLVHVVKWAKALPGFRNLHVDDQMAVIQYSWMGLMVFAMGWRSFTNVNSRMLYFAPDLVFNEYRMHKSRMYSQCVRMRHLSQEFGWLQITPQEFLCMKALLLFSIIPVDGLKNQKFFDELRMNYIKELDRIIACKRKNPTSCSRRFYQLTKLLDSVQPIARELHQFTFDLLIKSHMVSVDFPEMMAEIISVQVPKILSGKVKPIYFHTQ
Format: cell-based. The settings on record: for % residual agonist activity: at 30 μM, 3 nM 11-ketoDHT only = 100%.
Description: (§1) HEK293 cells (ACC305, DSMZ, Braunschweig, Germany) were cultivated at 37 °C in 5% CO2 in DMEM supplemented with 10% FBS, 2 mM L-glutamine, 1 mM sodium pyruvate, 100 U/mL penicillin, and 100 μg/mL streptomycin. For exposure studies, cells were cultivated in phenol red-free DMEM, supplemented with 1% dextran-coated charcoal-treated FBS.
In the case of the N–C-terminal interaction assay of AR, the ESR1 effector plasmid was replaced by 0.02 μg each of pVP16-AR (1–503) and pM-AR (640–920). Aliquot (0.6 μL) of 1 mg/mL PEI MAX 40K solution was diluted to 25 μL with 150 mM NaCl. The diluted PEI MAX 40K was added to the diluted DNA mixture, and the mixture was incubated at room temperature for 15 min. In parallel, HEK 293 cells were adjusted to 40,000 cells in 200 μL of culture medium per well. The transfection mixture (50 μL) was added to the cell suspension, gently mixed, and pipetted into a well of a 96-well plate. The next day, the transfected cells were treated with chemicals for 24 h before cell lysis with 50 μL per well of passive lysis buffer (Promega). Firefly and Renilla luciferase activities were measured as described previously. Results were normalized for transfection efficiency by dividing firefly luciferase activity by Renilla luciferase activity, measured from the same well. Assays were performed in technical triplicate in each independent experiment. […] Concentration response curves were fitted with nonlinear regression using the formula with a variable slope (four parameters) or the formula with a standard slope (three parameters) of GraphPad Prism 10.4.1 (GraphPad Software, Boston, MA, USA), as indicated in the respective figure legends.
AR N–C-terminal interaction mammalian two-hybrid assays were run in transiently transfected HEK293 cells, which were treated afterward for 24 h with the indicated concentrations of chemicals. […] Data are presented as a mean ± SD fold change (n = 4 independent experiments) with respect to the normalized reporter gene activity of cells treated with 0.1% DMSO only. […] Data are presented as mean ± SD (n = 3 independent experiments) with respect to the normalized reporter gene activity of cells treated with 3 nM 11-ketoDHT only, which was designated as 100%. Curves were fitted with nonlinear regression using the formula with a standard slope (three parameters) of GraphPad Prism 10.4.1.

The target in test [2] is T2, human ERα (ESR1) (Homo sapiens, UniProt P03372).
T2 sequence (P03372 251-595): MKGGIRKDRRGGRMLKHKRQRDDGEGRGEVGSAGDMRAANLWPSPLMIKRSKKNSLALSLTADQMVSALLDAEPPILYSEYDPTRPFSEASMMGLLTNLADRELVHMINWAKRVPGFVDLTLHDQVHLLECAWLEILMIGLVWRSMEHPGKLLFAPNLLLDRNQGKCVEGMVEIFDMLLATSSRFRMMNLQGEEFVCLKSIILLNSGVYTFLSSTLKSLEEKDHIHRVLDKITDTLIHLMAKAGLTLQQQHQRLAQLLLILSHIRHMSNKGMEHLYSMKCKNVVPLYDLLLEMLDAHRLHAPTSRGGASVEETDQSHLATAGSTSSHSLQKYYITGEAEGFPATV
Kind of test: ERα mammalian one-hybrid reporter gene assay in transiently transfected HEK293 cells. In kind it is cell-based. The settings on record: for E max [FC]: fold change vs 0.1% DMSO, at conc. BPA 10, BPF 10, BPS 30, ZEA 0.1 μM.
Description: as §1
Per well of a 96-well plate, a plasmid DNA mixture consisting of 0.26 μg of pGL4-G5, 0.04 μg of pM-ESR1 (251–495), and 0.005 μg of pGL4.75 [hRluc/CMV] was diluted with 150 mM NaCl to a final volume of 25 μL. […] Aliquot (0.6 μL) of 1 mg/mL PEI MAX 40K solution was diluted to 25 μL with 150 mM NaCl. The diluted PEI MAX 40K was added to the diluted DNA mixture, and the mixture was incubated at room temperature for 15 min. In parallel, HEK 293 cells were adjusted to 40,000 cells in 200 μL of culture medium per well. The transfection mixture (50 μL) was added to the cell suspension, gently mixed, and pipetted into a well of a 96-well plate. The next day, the transfected cells were treated with chemicals for 24 h before cell lysis with 50 μL per well of passive lysis buffer (Promega). Firefly and Renilla luciferase activities were measured as described previously. Results were normalized for transfection efficiency by dividing firefly luciferase activity by Renilla luciferase activity, measured from the same well. Assays were performed in technical triplicate in each independent experiment. […] Concentration response curves were fitted with nonlinear regression using the formula with a variable slope (four parameters) or the formula with a standard slope (three parameters) of GraphPad Prism 10.4.1 (GraphPad Software, Boston, MA, USA), as indicated in the respective figure legends.
ERα mammalian one-hybrid assays were executed in transiently transfected HEK293 cells, which were treated afterward for 24 h with the indicated concentrations of chemicals. Data are presented as a mean ± SD fold change (n ≥ 3 independent experiments) with respect to the normalized reporter gene activity of cells treated with 0.1% DMSO only.

Setting [3] is: HEK293, 24 h treatment, four-parameter fit, n ≥ 3, read-out: EC50 mean (activating ERα).

Here are results for five compounds from PMC12606622, “Assessment of the Binding Patterns for Endocrine Disrupting Chemicals in Complex with Estrogen and Androgen Receptors by Leveraging the Asclepios Enalos KNIME Nodes” (Journal of Chemical Information and Modeling, 2025).

Read-outs that look alike come from different tables or passages of the source.

The term EC50 denotes the concentration that produces a half-maximal response. `C[C@]12CCC(=O)C[C@@H]1CC[C@H]1[C@@H]3CC[C@H](O)[C@@]3(C)CC(=O)[C@@H]12` [11-ketoDHT, 11-Ketodihydrotestosterone, reference compound]: the EC50 in test [1] (agonist mode, HEK293, 24 h, n = 4, 95% CI 2.3–4.7 nM, read-out: EC50 (induction of AR N–C interaction)) came out at 0.0033 µM.

For orientation: IC50 means the concentration that gives 50% inhibition. In the case of `CC(C)(c1ccc(O)cc1)c1ccc(O)cc1` [Bisphenol A], in test [1], the “% residual agonist activity” value turned out to be 3.1%. The IC50 in test [1] (read-out: IC50 mean (inhibiting AR)) amounted to 0.98 µM. Moreover, in test [2], the “E max [FC]” value is on record as 19.6 FC.

With `Oc1ccc(Cc2ccc(O)cc2)cc1` [Bisphenol F], the EC50 in test [2] (setting [3]) was 2.1 µM. Besides, the “E max [FC]” value in test [2] was 56.1 FC.

Turning to `O=S(=O)(c1ccc(O)cc1)c1ccc(O)cc1` [Bisphenol S], in test [2] (setting [3]), the EC50 came to 5.2 µM. The “E max [FC]” value in test [2] stood at 48.5 FC.

Turning to `C[C@H]1CCCC(=O)CCC/C=C/c2cc(O)cc(O)c2C(=O)O1` [Zearalenone], in test [1], the IC50 came to 3.7 µM and the “% residual agonist activity” value stood at 1.5%. In addition, in test [2], the response was half-maximal at 0.0049 µM (EC50) and the “E max [FC]” value worked out at 89.9 FC. In addition, in test [2] (ratio of EC50 values, vs BPA), the “potency fold higher than BPA (ERα activation)” value was determined as 120 fold. Besides, in test [2] (ratio of EC50 values, vs BPF), the “potency fold higher than BPF (ERα activation)” value was found to be 430 fold. In test [2] (ratio of EC50 values, vs BPS), the “potency fold higher than BPS (ERα activation)” value was determined as 1060 fold.
